Our source for the Ki values is US20260193293A1, “PEPTIDES CAPABLE OF INHIBITING PROTEIN-PROTEIN INTERACTIONS AT GABAB1A SUBUNIT AND USES THEREOF” (UNIVERSITY OF COPENHAGEN, priority 2022, published 2026).

SMILES strings stand for the structures. Non-standard residues stand in square brackets, D forms with d. Residues, ends and D or L forms follow the SMILES beside them. NMeD = CN[C@@H](CC(=O)O)C(=O)O

One assay addresses Sushi domains (SD1/2) protein. The assay can be described thus: Fluorescence polarization (FP) competition assay with AJAP-1probe, calculated Ki. It counts as binding. Particulars: Table 4, truncation and elongation scans of APP epitope; read-out: Ki (nM) mean ± SEM. The gist of the method: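 Competition against 25 nM TAMRA-labelled peptide probe binding SD1/2, in PBS pH 7.4 with 1% BSA at rt, read at 530/580 nm. IC50 from sigmoidal dose-response fits, at least triplicate; Ki calculated from IC50 using probe Kd from saturation binding.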
`CC(=O)N[C@@H](CCC(=O)O)C(=O)N[C@@H](CCC(=O)O)C(=O)N[C@@H](CC(=O)O)C(=O)N[C@@H](CC(=O)O)C(=O)N[C@@H](CO)C(=O)N[C@@H](CC(=O)O)C(=O)N[C@H](C(=O)N[C@@H](Cc1c[nH]c2ccccc12)C(N)=O)C(C)C` (Ac-EEDDSDVW-NH2): the Ki is > 62500 nM.
Still for that read-out and setting: then `CC(=O)N[C@@H](CCC(=O)O)C(=O)N[C@@H](CCC(=O)O)C(=O)N[C@@H](CC(=O)O)C(=O)N[C@@H](CC(=O)O)C(=O)N[C@@H](CO)C(=O)N[C@@H](CC(=O)O)C(=O)N[C@H](C(=O)N[C@@H](Cc1c[nH]c2ccccc12)C(=O)N[C@@H](Cc1c[nH]c2ccccc12)C(N)=O)C(C)C` (Ac-EEDDSDVWW-NH2), with 1786 ± 16 nM; and `CC(=O)N[C@@H](CCC(=O)O)C(=O)N[C@@H](CCC(=O)O)C(=O)N[C@@H](CC(=O)O)C(=O)N[C@@H](CC(=O)O)C(=O)N[C@@H](CO)C(=O)N[C@@H](CC(=O)O)C(=O)N[C@H](C(=O)N[C@@H](Cc1c[nH]c2ccccc12)C(=O)N[C@@H](Cc1c[nH]c2ccccc12)C(=O)NCC(N)=O)C(C)C` (Ac-EEDDSDVWWG-NH2), with 12800 ± 415 nM.
The same measure, in the same setting: then `CC(=O)N[C@@H](CCC(=O)O)C(=O)N[C@@H](CCC(=O)O)C(=O)N[C@@H](CC(=O)O)C(=O)N[C@@H](CC(=O)O)C(=O)N[C@@H](CO)C(=O)N[C@@H](CC(=O)O)C(=O)N[C@H](C(=O)N[C@@H](Cc1c[nH]c2ccccc12)C(=O)N[C@@H](Cc1c[nH]c2ccccc12)C(=O)NCC(=O)NCC(N)=O)C(C)C` (Ac-EEDDSDVWWGG-NH2), with 1754 ± 7 nM; and `CC(=O)N[C@@H](CCC(=O)O)C(=O)N[C@@H](CCC(=O)O)C(=O)N[C@@H](CC(=O)O)C(=O)N[C@@H](CC(=O)O)C(=O)N[C@@H](CO)C(=O)N[C@@H](CC(=O)O)C(=O)N[C@H](C(=O)N[C@@H](Cc1c[nH]c2ccccc12)C(=O)N[C@@H](Cc1c[nH]c2ccccc12)C(=O)NCC(=O)NCC(=O)N[C@@H](C)C(N)=O)C(C)C` (Ac-EEDDSDVWWGGA-NH2), with 1020 ± 18 nM.
As for `CC(=O)N[C@@H](CCC(=O)O)C(=O)N[C@@H](CCC(=O)O)C(=O)N[C@@H](CC(=O)O)C(=O)N[C@@H](CC(=O)O)C(=O)N[C@@H](CO)C(=O)N[C@@H](CC(=O)O)C(=O)N[C@H](C(=O)N[C@@H](Cc1c[nH]c2ccccc12)C(=O)N[C@@H](Cc1c[nH]c2ccccc12)C(=O)NCC(=O)NCC(=O)N[C@@H](C)C(=O)N[C@@H](CC(=O)O)C(N)=O)C(C)C` (Ac-EEDDSDVWWGGAD-NH2), the Ki is 534 ± 13 nM.
Consider `CC(=O)N[C@@H](CCC(=O)O)C(=O)N[C@@H](CCC(=O)O)C(=O)N[C@@H](CC(=O)O)C(=O)N[C@@H](CC(=O)O)C(=O)N[C@@H](CO)C(=O)N[C@@H](CC(=O)O)C(=O)N[C@H](C(=O)N[C@@H](Cc1c[nH]c2ccccc12)C(=O)N[C@@H](Cc1c[nH]c2ccccc12)C(=O)NCC(=O)NCC(=O)N[C@@H](C)C(=O)N[C@@H](CC(=O)O)C(=O)N[C@H](C(N)=O)[C@@H](C)O)C(C)C` (Ac-EEDDSDVWWGGADT-NH2), for which the Ki is 585 ± 10 nM.
Regarding `CC(=O)N[C@@H](CCC(=O)O)C(=O)N[C@@H](CCC(=O)O)C(=O)N[C@@H](CC(=O)O)C(=O)N[C@@H](CC(=O)O)C(=O)N[C@@H](CO)C(=O)N[C@@H](CC(=O)O)C(=O)N[C@H](C(=O)N[C@@H](Cc1c[nH]c2ccccc12)C(=O)N[C@@H](Cc1c[nH]c2ccccc12)C(=O)NCC(=O)NCC(=O)N[C@@H](C)C(=O)N[C@@H](CC(=O)O)C(=O)N[C@H](C(=O)N[C@@H](CC(=O)O)C(N)=O)[C@@H](C)O)C(C)C` (Ac-EEDDSDVWWGGADTD-NH2), the Ki is 341 ± 10 nM.
For `CC(=O)N[C@@H](CCC(=O)O)C(=O)N[C@@H](CCC(=O)O)C(=O)N[C@@H](CC(=O)O)C(=O)N[C@@H](CC(=O)O)C(=O)N[C@@H](CO)C(=O)N[C@@H](CC(=O)O)C(=O)N[C@H](C(=O)N[C@@H](Cc1c[nH]c2ccccc12)C(=O)N[C@@H](Cc1c[nH]c2ccccc12)C(=O)NCC(=O)NCC(=O)N[C@@H](C)C(=O)N[C@@H](CC(=O)O)C(=O)N[C@H](C(=O)N[C@@H](CC(=O)O)C(=O)N[C@@H](Cc1ccc(O)cc1)C(N)=O)[C@@H](C)O)C(C)C` (Ac-EEDDSDVWWGGADTDY-NH2), the Ki is 301 ± 7 nM.
The same measure, in the same setting: then `CC(=O)N[C@@H](CCC(=O)O)C(=O)N[C@@H](CCC(=O)O)C(=O)N[C@@H](CC(=O)O)C(=O)N[C@@H](CC(=O)O)C(=O)N[C@@H](CO)C(=O)N[C@@H](CC(=O)O)C(=O)N[C@H](C(=O)N[C@@H](Cc1c[nH]c2ccccc12)C(=O)N[C@@H](Cc1c[nH]c2ccccc12)C(=O)NCC(=O)NCC(=O)N[C@@H](C)C(=O)N[C@@H](CC(=O)O)C(=O)N[C@H](C(=O)N[C@@H](CC(=O)O)C(=O)N[C@@H](Cc1ccc(O)cc1)C(=O)N[C@@H](C)C(N)=O)[C@@H](C)O)C(C)C` (Ac-EEDDSDVWWGGADTDYA-NH2), with 299 ± 8 nM; and `CC(=O)N[C@@H](CCC(=O)O)C(=O)N[C@@H](CCC(=O)O)C(=O)N[C@@H](CC(=O)O)C(=O)N[C@@H](CC(=O)O)C(=O)N[C@@H](CO)C(=O)N[C@@H](CC(=O)O)C(=O)N[C@H](C(=O)N[C@@H](Cc1c[nH]c2ccccc12)C(=O)N[C@@H](Cc1c[nH]c2ccccc12)C(=O)NCC(=O)NCC(=O)N[C@@H](C)C(=O)N[C@@H](CC(=O)O)C(=O)N[C@H](C(=O)N[C@@H](CC(=O)O)C(=O)N[C@@H](Cc1ccc(O)cc1)C(=O)N[C@@H](C)C(=O)N[C@@H](CC(=O)O)C(=O)NCC(N)=O)[C@@H](C)O)C(C)C` (Ac-EEDDSDVWWGGADTDYADG-NH2), with 343 ± 17 nM; and `CC(=O)N[C@@H](CCC(=O)O)C(=O)N[C@@H](CCC(=O)O)C(=O)N[C@@H](CC(=O)O)C(=O)N[C@@H](CC(=O)O)C(=O)N[C@@H](CO)C(=O)N[C@@H](CC(=O)O)C(=O)N[C@H](C(=O)N[C@@H](Cc1c[nH]c2ccccc12)C(=O)N[C@@H](Cc1c[nH]c2ccccc12)C(=O)NCC(=O)NCC(=O)N[C@@H](C)C(=O)N[C@@H](CC(=O)O)C(=O)N[C@H](C(=O)N[C@@H](CC(=O)O)C(=O)N[C@@H](Cc1ccc(O)cc1)C(=O)N[C@@H](C)C(=O)N[C@@H](CC(=O)O)C(=O)NCC(=O)NCC(N)=O)[C@@H](C)O)C(C)C` (Ac-EEDDSDVWWGGADTDYADGG-NH2), with 341 ± 6 nM.
Same read-out and setting: the figure for `CC(=O)N[C@@H](CCC(=O)O)C(=O)N[C@@H](CCC(=O)O)C(=O)N[C@@H](CC(=O)O)C(=O)N[C@@H](CC(=O)O)C(=O)N[C@@H](CO)C(=O)N[C@@H](CC(=O)O)C(=O)N[C@H](C(=O)N[C@@H](Cc1c[nH]c2ccccc12)C(=O)N[C@@H](Cc1c[nH]c2ccccc12)C(=O)NCC(=O)NCC(=O)N[C@@H](C)C(=O)N[C@@H](CC(=O)O)C(=O)N[C@H](C(=O)N[C@@H](CC(=O)O)C(=O)N[C@@H](Cc1ccc(O)cc1)C(=O)N[C@@H](C)C(=O)N[C@@H](CC(=O)O)C(=O)NCC(=O)NCC(=O)N[C@@H](CCC(=O)O)C(N)=O)[C@@H](C)O)C(C)C` (Ac-EEDDSDVWWGGADTDYADGGE-NH2) is 351 ± 26 nM; for `CC(=O)N[C@@H](CCC(=O)O)C(=O)N[C@@H](CCC(=O)O)C(=O)N[C@@H](CC(=O)O)C(=O)N[C@@H](CC(=O)O)C(=O)N[C@@H](CO)C(=O)N[C@@H](CC(=O)O)C(=O)N[C@H](C(=O)N[C@@H](Cc1c[nH]c2ccccc12)C(=O)N[C@@H](Cc1c[nH]c2ccccc12)C(=O)NCC(=O)NCC(=O)N[C@@H](C)C(=O)N[C@@H](CC(=O)O)C(=O)N[C@H](C(=O)N[C@@H](CC(=O)O)C(=O)N[C@@H](Cc1ccc(O)cc1)C(=O)N[C@@H](C)C(=O)N[C@@H](CC(=O)O)C(=O)NCC(=O)NCC(=O)N[C@@H](CCC(=O)O)C(=O)N[C@@H](CC(=O)O)C(N)=O)[C@@H](C)O)C(C)C` (Ac-EEDDSDVWWGGADTDYADGGED-NH2) it is 356 ± 11 nM.
Still for that read-out and setting: then `CC(=O)N[C@@H](CCC(=O)O)C(=O)N[C@@H](CCC(=O)O)C(=O)N[C@@H](CC(=O)O)C(=O)N[C@@H](CC(=O)O)C(=O)N[C@@H](CO)C(=O)N[C@@H](CC(=O)O)C(=O)N[C@H](C(=O)N[C@@H](Cc1c[nH]c2ccccc12)C(=O)N[C@@H](Cc1c[nH]c2ccccc12)C(=O)NCC(=O)NCC(=O)N[C@@H](C)C(=O)N[C@@H](CC(=O)O)C(=O)N[C@H](C(=O)N[C@@H](CC(=O)O)C(=O)N[C@@H](Cc1ccc(O)cc1)C(=O)N[C@@H](C)C(=O)N[C@@H](CC(=O)O)C(=O)NCC(=O)NCC(=O)N[C@@H](CCC(=O)O)C(=O)N[C@@H](CC(=O)O)C(=O)N[C@@H](CCCCN)C(N)=O)[C@@H](C)O)C(C)C` (Ac-EEDDSDVWWGGADTDYADGGEDK-NH2), with 392 ± 14 nM.

The assay is the same for the next values; noted with them: Table 7, Ala-, D-amino acids and N-methylation scans of APPWT; read-out: Ki (nM) mean ± SEM.
On to `CC(=O)N[C@@H](CCC(=O)O)C(=O)N[C@@H](CC(=O)O)C(=O)N(C)[C@@H](CC(=O)O)C(=O)N[C@@H](CO)C(=O)N[C@@H](CC(=O)O)C(=O)N[C@H](C(=O)N[C@@H](Cc1c[nH]c2ccccc12)C(=O)N[C@@H](Cc1c[nH]c2ccccc12)C(=O)NCC(=O)NCC(=O)N[C@@H](C)C(=O)N[C@@H](CC(=O)O)C(=O)N[C@H](C(=O)N[C@@H](CC(=O)O)C(N)=O)[C@@H](C)O)C(C)C` (Ac-ED[NMeD]SDVWWGGADTD-NH2), for which the Ki was 671 ± 27 nM.

The assay is the same for the next values; noted with them: Table 8, Ala-, D-amino acids and N-methylation scans of AJAP-1WT; read-out: Ki (nM) mean ± SEM.
On to `CC[C@H](C)[C@H](NC(=O)[C@H](Cc1ccccc1)NC(=O)[C@H](CCC(=O)O)NC(=O)[C@@H](NC(=O)[C@H](CCC(=O)O)NC(C)=O)[C@@H](C)O)C(=O)N[C@@H](C)C(=O)N[C@@H](Cc1c[nH]c2ccccc12)C(=O)NCC(=O)N1CCC[C@H]1C(=O)N[C@H](C(=O)NCC(=O)N[C@@H](CC(=O)O)C(=O)N[C@@H](C)C(=O)N[C@@H](CC(=O)O)C(N)=O)[C@@H](C)O` (Ac-ETEFIAWGPTGDAD-NH2), for which the Ki was 38 ± 1 nM.

The assay is the same for the next values; noted with them: Table 11, deep mutational scanning validation variants of AJAP-1WT; read-out: Ki (nM) mean ± SEM.
With `CC[C@H](C)[C@H](NC(=O)[C@H](Cc1ccccc1)NC(=O)[C@H](CCC(=O)O)NC(=O)[C@@H](NC(=O)[C@H](CCC(=O)O)NC(C)=O)[C@@H](C)O)C(=O)N[C@@H](C)C(=O)N[C@@H](Cc1c[nH]c2ccccc12)C(=O)NCC(=O)N1CCC[C@H]1C(=O)N[C@H](C(=O)NCC(=O)N[C@@H](CC(=O)O)C(=O)N[C@@H](CC(=O)O)C(=O)N[C@@H](CC(=O)O)C(N)=O)[C@@H](C)O` (Ac-ETEFIAWGPTGDDD-NH2), the Ki was 27 ± 2 nM.
